Measured values published in patent US20080070868A1, “Novel Thiazole Inhibitors of Fructose 1,6-bisphosphatase” (Metabasis Therapeutics, Inc., priority 2004, published 2008).
“Also recorded” adds a separate entry of the source. Like-named read-outs stand apart in the source and are kept apart here.

Experiments:
[1] = molecular target: T1, human liver FBPase (Homo sapiens, UniProt P09467); test: Inhibition of human liver FBPase; format: biochemical; conditions: purified recombinant human liver FBPase, 0.150 mM fructose 1,6-bisphosphate, 37° C.; read-out: IC50 (hlFBPase)
T1 construct: made in house; host or cells: E. coli BL21
T1 sequence (P09467 2-338 limits assumed): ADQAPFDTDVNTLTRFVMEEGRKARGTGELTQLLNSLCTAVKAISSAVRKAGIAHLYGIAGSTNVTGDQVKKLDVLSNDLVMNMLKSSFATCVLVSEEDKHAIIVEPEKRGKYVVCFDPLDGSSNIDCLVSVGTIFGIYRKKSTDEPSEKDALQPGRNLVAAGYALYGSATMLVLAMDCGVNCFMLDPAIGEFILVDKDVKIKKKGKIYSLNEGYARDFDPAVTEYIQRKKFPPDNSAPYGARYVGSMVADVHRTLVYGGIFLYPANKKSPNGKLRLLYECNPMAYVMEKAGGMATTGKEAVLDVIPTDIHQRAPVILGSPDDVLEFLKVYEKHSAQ
Protocol: E. coli strain BL21 transformed with a human liver FBPase-encoding plasmid was obtained from Dr. M. R. El-Maghrabi at the State University of New York at Stony Brook. […] Enzymatic activity was measured spectrophotometrically in reactions that coupled the formation of product (fructose 6-phosphate) to the reduction of dimethylthiazoldiphenyltetrazolium bromide (MTT) via NADP^+ and phenazine methosulfate (PMS), using phosphoglucose isomerase and glucose 6-phosphate dehydrogenase as the coupling enzymes. Reaction mixtures (200 μl) were made up in 96-well microtitre plates, and consisted of 50 mM Tris-HCl, pH 7.4, 100 mM KCl, 5 mM EGTA, 2 mM MgCl2, 0.2 mM NADP, 1 mg/ml BSA, 1 mM MTT, 0.6 mM PMS, 1 unit/ml phosphoglucose isomerase, 2 units/ml glucose 6-phosphate dehydrogenase, and 0.150 mM substrate (fructose 1,6-bisphosphate). Inhibitor concentrations were varied from 0.01 μM to 10 μM. Reactions were started by the addition of 0.002 units of pure hlFBPase, and were monitored for 7 min. at 590 nm in a Molecular Devices Plate Reader (37° C.).

[2] = molecular target: T2, human NAT1 (Homo sapiens, UniProt P18440); test: N-acetylation by recombinant human NAT1; format: in vitro ADME; conditions: for % Conversion NAT1: compound 100 μM, 37° C., 120 min, N-acyl product by HPLC; for susceptibility to N-acetylation by NAT1, in words: human recombinant NAT1
T2 construct: purchased BD Gentest (Bedford, Mass.); host or cells: insect cells
T2 sequence (P18440 1-290): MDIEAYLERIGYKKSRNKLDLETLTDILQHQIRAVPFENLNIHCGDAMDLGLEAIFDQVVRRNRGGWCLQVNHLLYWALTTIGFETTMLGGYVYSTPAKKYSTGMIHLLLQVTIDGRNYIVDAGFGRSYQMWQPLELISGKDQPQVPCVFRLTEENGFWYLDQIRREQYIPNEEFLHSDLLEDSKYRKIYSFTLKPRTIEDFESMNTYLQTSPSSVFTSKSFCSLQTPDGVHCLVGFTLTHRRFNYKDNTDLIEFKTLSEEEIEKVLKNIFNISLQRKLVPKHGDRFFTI
Protocol: (§1) Insect cell-expressed human NAT1 and NAT2 and control insect cytosol were obtained from BD Gentest (Bedford, Mass.). Compounds (100 μM) were incubated in 0.25 mL of NAT reaction cocktail consisting of 25 mM potassium phosphate pH 7.4 (at 25° C.), 1 mM EDTA, 1 mM DTT, 0.5 mM acetyl CoA, 5 mM acetyl-DL-carnitine, 20 u/mL acetyltransferase and either NAT1, NAT2 or control insect cytosol (0.1 mg/mL). Reactions were performed in an Eppendorf Thermomixer (37° C., 120 min.). At 0 and 120 min., 100 μl of each reaction was removed and added to a clean 1.7 mL tube containing 150 μl of 100% methanol. The tubes were vortexed and centrifuged at 14,000 rpm for 10 min. in an Eppendorf microcentrifuge (room temperature, 5 min., 14,000 rpm). The supernatants were analyzed by HPLC (Agilent 1100 series) using a Phenosphere C18 column (5 micron, 150×4.6 mm). The column was equilibrated with 20 mM potassium phosphate pH 4.5 or pH 6.2 (at 25° C.) and eluted with a linear gradient to 80% acetonitrile. The percent conversion of the compounds was calculated from the following equation: area of N-acyl product divided by (area of compound+area of N-acyl product), multiplied by 100.

[3] = test system: Sprague-Dawley rats; test: Glucose lowering following oral administration to the fasted, normal rat; format: in vivo; conditions: maximum lowering relative to saline controls, 10 mg/kg oral, 18-h fasted rats
Protocol: Compounds were administered by oral gavage to 18-h fasted, Sprague-Dawley rats (250-300 g, n=3/4/group) at a dose of 10 mg/kg. Phosphonic acids (active moieties) were prepared in deionized water, and the solution adjusted to neutrality with sodium hydroxide. Prodrugs were dissolved in polyethylene glycol (mw 400). Blood samples were taken via tail vein nick immediately prior to dosing and at 1 h intervals thereafter. Blood glucose was analyzed by means of a HemoCue glucose analyzer (HemoCue Inc., Mission Viejo, Calif.). The table below indicates the maximum % glucose lowering achieved relative to control animals dosed with saline.

[4] = molecular target: T3, human NAT2 (Homo sapiens, UniProt P11245); conditions: for % Conversion NAT2: human, 120 min, 100 μM, pH 7.4
T3 sequence (P11245 1-290): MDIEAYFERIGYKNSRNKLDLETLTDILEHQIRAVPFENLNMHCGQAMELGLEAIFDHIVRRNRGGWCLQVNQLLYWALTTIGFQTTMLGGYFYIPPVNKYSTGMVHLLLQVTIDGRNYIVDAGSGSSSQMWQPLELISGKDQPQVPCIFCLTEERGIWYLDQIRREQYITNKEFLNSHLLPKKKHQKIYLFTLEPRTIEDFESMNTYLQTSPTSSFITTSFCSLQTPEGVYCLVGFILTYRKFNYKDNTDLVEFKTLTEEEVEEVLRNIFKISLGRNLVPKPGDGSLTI
Protocol: as §1

[5] = Variability of N-acetylation in human liver S9 fractions; format: in vitro ADME; conditions: 100 μM, S9 10 mg/mL protein; donors with high or low N-acetylase activity
Protocol: The reactions are incubated, processed, and analyzed as described in Example C.

[6] = test system: ZDF rats; test: Blood glucose lowering in the Zucker Diabetic Fatty (ZDF) rat; format: in vivo; conditions: for glucose lowering compared to vehicle-treated rats: 10 mg/kg oral in PEG-400, at 6 h, fasting ZDF rats; for duration of action: ZDF rat, oral, 2.1 at 10-300 mg/kg
Protocol: Nine week old ZDF rats were fasted at 7 am and screened for hyperglycemia (BG>300 mg/dl) at 12:30 pm. […] Food was withheld for 6 to 9 h. Blood samples were collected intermittently from the tail vein and diluted 1:2 (v:v) in 20% glycerol-saline with 20 U/ml heparin. Blood glucose was determined by means of a Hemocue glucose analyzer (Hemocue Inc., Mission Viejo, Calif.) used according to the instructions of the manufacturer. Results were expressed as means ±standard errors of the mean (sem) for all values. Differences between treatment and vehicle-treated animals were evaluated using ANOVA with Dunnett's post-hoc analysis or Tukey-Kramer's post hoc analysis when all differences are compared. Differences are considered significant when p≦0.05.

[7] = molecular target: T4, rat liver FBPase (Rattus norvegicus, UniProt P19112); test: Inhibition of rat liver FBPase; format: biochemical; conditions: partially purified rat liver FBPase; read-out: IC50 (rlFBPase)
T4 construct: This partially purified fraction was used for enzyme assays; from tissue; host or cells: rat liver (45-75% ammonium sulfate fraction of the homogenate)
T4 sequence (P19112 2-363 limits assumed): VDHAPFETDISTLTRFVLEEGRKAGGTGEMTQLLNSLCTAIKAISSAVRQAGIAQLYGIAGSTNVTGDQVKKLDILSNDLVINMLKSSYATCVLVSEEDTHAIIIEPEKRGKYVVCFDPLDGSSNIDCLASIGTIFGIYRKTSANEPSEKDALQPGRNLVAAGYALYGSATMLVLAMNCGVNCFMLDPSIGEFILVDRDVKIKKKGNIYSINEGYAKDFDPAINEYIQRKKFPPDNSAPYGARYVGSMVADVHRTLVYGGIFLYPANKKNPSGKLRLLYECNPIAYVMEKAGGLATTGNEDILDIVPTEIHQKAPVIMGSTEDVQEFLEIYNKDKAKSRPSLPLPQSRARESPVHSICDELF
Protocol: Rat liver FBPase was obtained by homogenizing freshly isolated rat liver in 100 mM Tris-HCl buffer, pH 7.4, containing 1 mM EGTA, and 10% glycerol. The homogenate was clarified by centrifugation, and the 45-75% ammonium sulfate fraction prepared. This fraction was redissolved in the homogenization buffer and desalted on a PD-10 gel filtration column (Biorad) eluted with same. This partially purified fraction was used for enzyme assays.

[8] = molecular target: T3, human NAT2; test: N-acetylation by recombinant human NAT2
Protocol: as §1

Row | SMILES | IC50 [1] [nM] | % Conversion NAT1 [2] [%] | susceptibility to N-acetylation by NAT1, in words [2] | melting point [°C] | inhibition in vivo at 10 mg/kg [3] [%] | % Conversion NAT2 [4] [%] | also measured
1 | CCC(C)(CC)C(=O)c1sc(N)nc1-c1ccc(P(=O)(O)O)o1 [Compound 1.3, [5-(2-amino-5-(2-ethyl-2-methyl-butyryl)thiazol-4-yl)furan-2-yl]phosphonic acid] | 18 | 0 | not metabolized | 202 to 205 | – | – | –
2 | CCC(C)(CC)C(=O)c1sc(N)nc1-c1ccc(P(=O)(NC(C)(C)C(=O)OC(C)C)NC(C)(C)C(=O)OC(C)C)o1 [Compound 2.6] | – | – | – | 160 to 164 | 12 | – | –
3 | Nc1nc(-c2ccc(P(=O)(O)O)o2)c(C(=O)c2ccccc2)s1 [Compound 1.5, [5-(2-amino-5-benzoylthiazol-4-yl)furan-2-yl]phosphonic acid] | 56 | – | – | > 210 | – | – | –
4 | CC(C)OC(=O)C(C)(C)NP(=O)(NC(C)(C)C(=O)OC(C)C)c1ccc(-c2nc(N)sc2C(=O)C(C)(C)C)o1 [Compound 2.3] | – | – | – | – | 27 | 0 | susceptibility to N-acetylation by NAT2, in words [4]: insusceptible
5 | CCOC(=O)C(C)(C)NP(=O)(NC(C)(C)C(=O)OCC)c1ccc(-c2nc(N)sc2C(=O)C(C)(CC)CC)o1 [Compound 2.5] | – | – | – | 157 to 160 | 15 | – | –
6 | CCOC(=O)C(C)(C)NP(=O)(NC(C)(C)C(=O)OCC)c1ccc(-c2nc(N)sc2C(=O)C(C)(C)C)o1 [Compound 2.1] | > 100000 | 0 | insusceptible | 149 to 152 | 68 | 0 | conversion to N-acetylated metabolite in human liver S9 from various donors [5]: no conversion; glucose lowering compared to vehicle-treated rats [6]: 30%; duration of action [6]: > 9 h; susceptibility to N-acetylation by NAT2, in words [4]: insusceptible
7 | CCOC(=O)[C@H](C)NP(=O)(N[C@@H](C)C(=O)OCC)c1ccc(-c2nc(N)sc2CC(C)C)o1 [Compound 4.6, reference compound] | > 100000 | 6.3 | – | – | – | 62.4 | conversion to N-acetylated metabolite in human liver S9 from various donors [5]: high levels; glucose lowering compared to vehicle-treated rats [6]: 14%; duration of action [6]: ~3 h; susceptibility to N-acetylation by NAT2, in words [4]: extensively metabolized
8 | CC(C)(C)C(=O)c1sc(N)nc1-c1ccc(P(=O)(O)O)o1 [Compound 1.1, {5-[2-amino-5-(2,2-dimethylpropionyl)thiazol-4-yl]-furan-2-yl}phosphonic acid] | 31 | 0 | not metabolized; also recorded: insusceptible | – | – | – | IC50 [7]: 189 nM; conversion to N-acetylated metabolite in human liver S9 from various donors [5]: no conversion; % Conversion NAT2 ([8]; compound 100 μM, 37° C., 120 min, N-acyl product by HPLC): 0%; susceptibility to N-acetylation by NAT2, in words ([8]; human recombinant NAT2): insusceptible
9 | CCOC(=O)[C@H](C)NP(=O)(N[C@@H](C)C(=O)OCC)c1ccc(-c2nc(N)sc2C(=O)C(C)(C)C)o1 [Compound 2.2, 2-amino-5-(2,2-dimethylpropionyl)-4-{[5-(N,N′-((S)-1-ethoxycarbonyl)-ethyl)phosphonamido]furan-2-yl}thiazole] | – | – | – | – | 25 | 0 | susceptibility to N-acetylation by NAT2, in words [4]: insusceptible
10 | CCC(C)(C)C(=O)c1sc(N)nc1-c1ccc(P(=O)(O)O)o1 [Compound 1.2, {5-[2-amino-5-(2,2-dimethyl-butyryl)thiazol-4-yl]furan-2-yl}phosphonic acid] | 25 | 0 | not metabolized | – | – | – | –
11 | CC(C)Cc1sc(N)nc1-c1ccc(P(=O)(O)O)o1 [Compound 3.6, reference compound] | – | 51 | highly susceptible | – | – | 5.9 | IC50 [7]: 140 nM; conversion to N-acetylated metabolite in human liver S9 from various donors [5]: high levels
12 | CCOC(=O)CNP(=O)(NCC(=O)OCC)c1ccc(-c2nc(N)sc2C(=O)C(C)(C)C)o1 [Compound 2.4] | – | – | – | 86 to 88 | 22 | – | –
13 | CC(C)(C)Cc1sc(N)nc1-c1ccc(P(=O)(O)O)o1 [Compound 3.1, reference compound] | 12 | 22.4 | highly susceptible | – | – | – | IC50 [7]: 92 nM
14 | CC(=O)c1sc(N)nc1-c1ccc(P(=O)(O)O)o1 [Compound 1.4, [5-(2-amino-5-acetylthiazol-4-yl)furan-2-yl]phosphonic acid] | 66 | – | – | > 207 | – | – | –
